Measurements: patent US20250295657A1, “Methods and Compositions for Treatment of Inflammation and Inflammatory Conditions” (University of Pittsburgh - Of the Commonwealth System of …, priority 2022, published 2025)

Tested on: pseudotyped SARS-CoV-2 (D614G Spike)
Type: cell-based

## O=C(OCc1cc(=O)oc2cc(O)c(O)cc12)c1nn(-c2ccccc2)c(=O)c2ccccc12 [compound 958]
  pseudotyped SARS-CoV-2 infection (D614G Spike): prevent pseudotyped SARS-CoV-2 infection
